For orientation: IC50 means the point on the concentration scale where inhibition reaches its midpoint. Read a low IC50 as inhibition by little substance.

Our source for the IC50 values is BindingDB's records for doi:10.7270/Q2P26WJQ (The Scripps Research Institute Molecular Screening Center, 2009).

Where only a bound is given, the exact number is not on record here.

In this experiment the target is Transitional endoplasmic reticulum ATPase (Homo sapiens, UniProt P55072). Nature of the experiment: p97 ATPase inhibitors, dose response, biochemical (AID 1534).
Sequence of Transitional endoplasmic reticulum ATPase (P55072 whole entry): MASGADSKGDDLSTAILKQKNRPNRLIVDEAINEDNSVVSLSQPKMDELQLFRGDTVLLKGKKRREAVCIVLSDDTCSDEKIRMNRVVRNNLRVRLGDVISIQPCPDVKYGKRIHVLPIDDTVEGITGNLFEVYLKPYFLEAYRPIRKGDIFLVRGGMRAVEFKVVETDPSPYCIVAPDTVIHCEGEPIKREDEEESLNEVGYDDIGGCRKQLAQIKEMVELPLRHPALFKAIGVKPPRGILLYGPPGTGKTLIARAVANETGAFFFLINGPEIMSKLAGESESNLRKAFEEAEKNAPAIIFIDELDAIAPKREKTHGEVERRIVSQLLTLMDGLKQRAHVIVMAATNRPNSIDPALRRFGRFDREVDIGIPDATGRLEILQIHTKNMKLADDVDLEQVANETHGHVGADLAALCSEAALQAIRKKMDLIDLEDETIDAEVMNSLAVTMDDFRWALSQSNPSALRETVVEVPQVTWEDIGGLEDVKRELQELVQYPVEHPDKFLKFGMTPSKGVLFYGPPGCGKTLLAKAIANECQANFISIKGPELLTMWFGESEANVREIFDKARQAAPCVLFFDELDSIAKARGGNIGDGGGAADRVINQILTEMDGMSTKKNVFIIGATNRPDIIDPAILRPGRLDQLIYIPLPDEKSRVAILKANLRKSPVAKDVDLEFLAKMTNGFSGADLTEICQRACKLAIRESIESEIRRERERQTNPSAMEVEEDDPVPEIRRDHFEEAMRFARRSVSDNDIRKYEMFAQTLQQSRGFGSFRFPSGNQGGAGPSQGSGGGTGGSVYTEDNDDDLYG
Regarding `On1[o+]nc2c1CCc1nc(-c3ccccc3)[n-]c1-2` [3-oxidanidyl-7-phenyl-4,5-dihydro-1H-imidazo[4,5-g][2,1,3]benzoxadiazol-3-ium], the IC50 was more than 50 µM. In turn, `NS(=O)(=O)c1ccc(N=NCc2ccc(O)c(O)c2O)c([N+](=O)[O-])c1` [4-[[(E)-(2,3-dihydroxy-4-oxo-1-cyclohexa-2,5-dienylidene)methyl]hydrazo]-3-nitrobenzenesulfonamide] returned an IC50 of more than 50 µM.

Turning to `COc1ccc(CN=Nc2nnc(-c3ccccc3)c(=O)[nH]2)cc1` [4-methoxybenzaldehyde (5-oxo-6-phenyl-4,5-dihydro-1,2,4-triazin-3-yl)hydrazone], the half-inhibitory concentration (IC50) is more than 50 µM. The molecule `CN(C)[C@@H]1C(=O)C(C(N)=O)C(=O)[C@@]2(O)C(=O)C3C(=O)c4c(O)cccc4[C@@](C)(O)[C@H]3[C@H](O)[C@@H]12` (stereo partly drawn) [(2E,4S,4aR,5S,5aR,6S,12aS)-2-[azanyl(oxidanyl)methylidene]-4-(dimethylamino)-6-methyl-5,6,10,11,12a-pentakis(oxidanyl)-4,4a,5,5a-tetrahydrotetracene-1,3,12-trione] came in with a 50% inhibitory concentration (IC50) of more than 50 µM. For `Cc1ccc(SCC(=O)C(C#N)c2nc3ccccc3s2)cc1` (configuration not stated) [(2Z)-2-(3H-1,3-benzothiazol-2-ylidene)-3-keto-4-(p-tolylthio)butyronitrile], the half-inhibitory concentration (IC50) was more than 50 µM.

Regarding `Oc1ccc(CN=Nc2ccnc3cc(Cl)ccc23)cc1O` [(4Z)-4-[[2-(7-chloroquinolin-4-yl)hydrazinyl]methylidene]-2-hydroxycyclohexa-2,5-dien-1-one], the IC50 is 36.5 µM. This lies in the double-digit micromolar range. Molecule `Cc1ccc(C)c(SCC(=O)OCC(=O)C(C#N)c2nc3ccccc3[nH]2)c1` (configuration not stated) [MLS000392255] displayed a half-maximal inhibitory concentration (IC50) of more than 50 µM.
